Assay results taken from publication PMC5799093, “Proceedings of Réanimation 2018, the French Intensive Care Society International Congress” (Annals of Intensive Care, 2018).
Read-outs that look alike come from different tables or passages of the source.

Columns and labels:
[1] = Piperacillin population pharmacokinetics in critically ill children; assay type: in vivo; conditions: median (range), one compartment model, n = 50 children
Text: Pharmacokinetics were described using the non-linear mixed effect modelling software MONOLIX.

[2] = Residual serum concentrations of piperacillin and amoxicillin and neurological disorders (HPLC MS); assay type: in vivo, critically ill patients
Experimental: Patients and methods: This study was carried out retrospectively during the period 01.01.2015 to 08.02.2017, in patients hospitalized in the medical ICU-CHU Rouen with PTM.

[3] = Beta-lactam plasma concentrations in children with severe sepsis or septic shock (HPLC); conditions: current standard dosing
Pseudomonas = conditions: January 2010 - June 2014
Acinetobacter baumannii = assay type: cell-based; conditions: blood culture isolates 2012–2016
Experimental: (§1) Patients and methods: From January 2012 to December 2016, a total of 2,182 non repetitive strains were isolated from blood cultures. Incubation of blood culture vials and the detection of bacterial growth were performed by the BACTEC system. All Isolated organisms were identified on the basis of standard microbiological techniques. Antibiotic susceptibility testing was carried out by the agar disk diffusion method, and susceptibility results were interpreted using clinical breakpoints according to CA-SFM 2013 and 2015 guidelines. Data were analyzed using the SIR-system. Minimum inhibitory concentrations of colistin, imipenem and vancomycin were determined using the Etest® method (bioMérieux).

[4] = test system: diaphragm contraction and workload; assay: Diaphragmatic electromyography after diazepam / buprenorphine; assay type: in vivo, Sprague–Dawley rat; conditions: 30 mg kg BUP intraperitoneally, 20 mg kg DZP subcutaneously
Experimental: Patients and methods: 11C-BUP was administered intravenously, 30 mg kg unlabeled BUP intraperitoneally and 20 mg kg DZP subcutaneously.

Acinetobacter Baumanii = assay: Resistance of nosocomial infection isolates: Acinetobacter Baumanii (P-222); assay type: cell-based; conditions: n = 39 isolates, 2016
Text: Patients and methods: This was a retrospective study conducted within a 22-bed medical ICU of a Tunisian teaching hospital (301 beds) carried from January 1st to December 31, 2016. We recorded demographic patients’ characteristics which ICU’s stay was complicated with at least one NI. Then we described pathogens and microbiological specificities of NI.

Staphylococcus aureus [5] = assay: Resistance in nosocomial urinary tract infection: Staphylococcus aureus (P-219); conditions: January 2010 - June 2014
Enterococcus faecalis = assay: Resistance in nosocomial urinary tract infection: Enterococcus faecalis (P-219); conditions: January 2010 - June 2014
tramadol-overdosed rats = assay: Antidotes for tramadol overdose: seizures, plethysmography, sedation, EEG; conditions: for tramadol-induced respiratory depression / ventilation: whole-body plethysmography
[6] = test system: patients after out-of-hospital cardiac arrest
[7] = Norepinephrine in pediatric septic shock, mortality (P-169); assay type: in vivo, human (children)
[8] = test system: cardiogenic shock patients; assay: OPTIMA CC double-blind randomized trial, epinephrine vs norepinephrine in cardiogenic shock after myocardial infarction; assay type: in vivo
Text: Patients and methods: Multicenter, double-blind, randomized trial in 8 french ICU. Cardiogenic shock patients due to myocardial infarction treated by PCI were randomized to receive epinephrine or norepinephrine to maintain MAP at 70 mmHg. Dobutamine was introduced at the physician discretion according to a combination of parameters—echocardiographic parameters, cardiac index, lactate clearance, SVO2 and Swan-Ganz derived parameters.

Staphylococcus aureus [9] = assay type: cell-based; conditions: blood culture isolates 2012–2016
Experimental: as §1

[10] = not given; remark: listed apart in the source
[11] = test system: carbapenemase-producing Enterobacteriaceae; assay: Antibiotic susceptibility of Enterobacteriaceae with decreased susceptibility to carbapenems; assay type: cell-based
[12] = Hemodynamic and metabolic effects of molar sodium lactate infusion in critically ill patients (P-135); assay type: in vivo, human
Experimental: Patients and methods: This was a retrospective study performed in a large University Hospital. All patients receiving the molecule were included in the analysis. Indication for sodium lactate, dose, and modality of administration were collected. We also collected clinical and biological variables before sodium lactate infusion, after 6 h (H6), and after 24 h (H24). An analysis of the evolution of these variables at H6 and H24 was performed.

[13] = test system: E.coli lipopolysaccharide-challenged rats; assay: Sodium lactate vs 0.9% NaCl in rat endotoxin shock: fluid balance and capillary leak; assay type: in vivo
Experimental: Patients and methods: The sixteen sedated, mechanically ventilated rats were challenged with intravenous infusion of E.coli lipopolysaccharide (10 mg/kg). Two groups of eight animals were randomised to receive a continous perfusion (5 mL/kg/h) of sodium lactate 11.2% (treatment group) or 0.9% NaCl (control group). In order to inject the same caloric load in the two groups, a 4.35 mL/kg/h of either water of 10% dextrose solution were perfused. Mean arterial pressure, heart rate, urine ouput were measured over a 210 min period. An echocardiography was then performed and Evans Blue (1%, 30 mg/kg) was intravenously injected 30 min before sacrifice. Organs were withdrawn and organs wet dry ratio and Evans blue dye extravasation were measured.

[14] = test system: Stenotrophomonas maltophilia VAP; assay: Risk factors for Stenotrophomonas maltophilia VAP, matched analysis; assay type: in vivo, patients; conditions: exposure during the week before VAP; 93 cases, 380 controls
Experimental: Patients and methods: We conducted a retrospective analysis of prospectively collected data in a multicenter database in France. VAP was determined as microbiologically documented pneumonia occurring after at least two days of mechanical ventilation. All patients admitted from 2000 to 2015 presenting at least one episode of VAP were included. SM-VAP were compared with VAP due to other micro-organisms (VAP-other). To assess risk factors and day-30 (D30) mortality, SM-VAP were matched (1 − n) with VAP-other based on center, time from ICU admission to VAP occurrence, and SAPS II score.

[15] = test system: acutely poisoned ventilated patients; conditions: human, in vivo
[16] = test system: Farnesoid X receptor (FXR); assay: LPS sepsis in CKD mice treated with sevelamer (P-138); assay type: in vivo, mice (C57BL6 J)
Experimental: Patients and methods: Sepsis was provoked by the injection of 0.5 mg kg of LPS 6 weeks after the creation of CKD. The CKD was created by unilateral nephrectomy associated with contralateral thermocauterisation. The mice (C57BL6 J) were randomly assigned to one of the following groups—sham placebo, CKD placebo, sham LPS or CKD LPS. A fifth group of CKD LPS mice received a treatment with sevelamer (a bile acid sequestrant) during 6 weeks. Survival of the animals, serum biochemistry and molecular biology in the kidney were performed after sacrifice.

Escherichia-coli = assay: Resistance in nosocomial urinary tract infection: Escherichia-coli (P-219); conditions: January 2010 - June 2014
glucocorticoid receptors = glucocorticoid receptors (Homo sapiens, UniProt P04150)
Sequence of glucocorticoid receptors (P04150 whole entry): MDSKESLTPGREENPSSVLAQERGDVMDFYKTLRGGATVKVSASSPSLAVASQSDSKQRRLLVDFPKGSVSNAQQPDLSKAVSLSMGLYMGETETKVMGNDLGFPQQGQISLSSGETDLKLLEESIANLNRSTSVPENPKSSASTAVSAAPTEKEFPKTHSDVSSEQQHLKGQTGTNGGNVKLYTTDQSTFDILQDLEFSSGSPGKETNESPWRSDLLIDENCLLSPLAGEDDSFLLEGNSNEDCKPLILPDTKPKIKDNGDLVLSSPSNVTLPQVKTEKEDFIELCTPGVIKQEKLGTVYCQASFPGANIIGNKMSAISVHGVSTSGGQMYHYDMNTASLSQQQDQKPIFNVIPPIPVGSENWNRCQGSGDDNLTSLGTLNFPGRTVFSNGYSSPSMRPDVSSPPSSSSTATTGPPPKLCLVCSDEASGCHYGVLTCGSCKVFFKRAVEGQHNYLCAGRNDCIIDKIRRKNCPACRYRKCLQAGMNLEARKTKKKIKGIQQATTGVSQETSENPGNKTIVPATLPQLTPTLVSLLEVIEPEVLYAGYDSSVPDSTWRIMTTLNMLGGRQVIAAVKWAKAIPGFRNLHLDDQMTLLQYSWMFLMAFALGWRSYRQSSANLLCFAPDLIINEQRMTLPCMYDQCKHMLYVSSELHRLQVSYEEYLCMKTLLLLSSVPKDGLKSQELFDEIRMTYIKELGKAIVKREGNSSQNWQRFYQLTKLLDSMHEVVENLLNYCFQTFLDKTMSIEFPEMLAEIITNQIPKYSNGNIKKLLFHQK

## CCN1CCN(C(=O)N[C@@H](C(=O)N[C@@H]2C(=O)N3[C@@H]2SC(C)(C)[C@@H]3C(=O)O)c2ccccc2)C(=O)C1=O [Piperacillin]
[1]; MONOLIX, intermittent infusions
  clearance: 3 (0.71–10) L h^−1
[1]
  volume of distribution: 3.8 (0.72–25.8) L
[2]; 80% specificity and sensitivity
  residual concentration associated with occurrence of neurological disorders: greater than 40 mg L^−1
[2]; HPLC MS
  residual serum concentration, patients with neurological disorders or wakefulness delays: 98.2 ± 16.8 mg L^−1
  residual serum concentration, patients without neurological disorders: 21.6 ± 4.0 mg L^−1

## Amoxicillin clavulanic acid [AMC]
community-acquired peritonitis
  efficiency: 77%
In vivo
  impact when AMC was inadequate: no impact on morbidity and mortality

## CC(C)(O/N=C(\C(=O)N[C@@H]1C(=O)N2C(C(=O)[O-])=C(C[n+]3ccccc3)CS[C@H]12)c1csc(N)n1)C(=O)O [ceftazidime]
Klebsiella pneumoniae
  resistance rate: 70%
Pseudomonas aeruginosa
  resistance rate: 39%
[3]
  patients with insufficient plasma concentration: 0%
Pseudomonas
  resistant: 61%
Acinetobacter baumannii
  resistance rate: Eighty per cent

## buprenorphine
[4]
  diaphragm contraction (first 60 min AUC): significantly increased
  diaphragm workload (first 60 min AUC): significantly increased

## CN(C)c1cc(NC(=O)CNC(C)(C)C)c(O)c2c1C[C@H]1C[C@H]3[C@H](N(C)C)C(=O)C(C(N)=O)=C(O)[C@@]3(O)C(=O)C1=C2O [tygecycline]
Acinetobacter Baumanii
  resistance: 100%

## CN[C@H](CC(C)C)C(=O)N[C@H]1C(=O)N[C@@H](CC(N)=O)C(=O)N[C@H]2C(=O)N[C@H]3C(=O)N[C@H](C(=O)N[C@H](C(=O)O)c4cc(O)cc(O)c4-c4cc3ccc4O)[C@H](O)c3ccc(c(Cl)c3)Oc3cc2cc(c3O[C@@H]2O[C@H](CO)[C@@H](O)[C@H](O)[C@H]2O[C@H]2C[C@](C)(N)[C@H](O)[C@H](C)O2)Oc2ccc(cc2Cl)[C@H]1O [vancomycin]
Staphylococcus aureus [5]
  resistance: without any resistance
Enterococcus faecalis
  resistance: no resistance

## CC1(C)S[C@@H]2[C@H](NC(=O)[C@H](N)c3ccccc3)C(=O)N2[C@H]1C(=O)O [ampicillin]
Enterococcus faecalis
  resistance: no resistance

## C=CCN1CC[C@]23c4c5ccc(O)c4O[C@H]2C(=O)CC[C@@]3(O)[C@H]1C5 [naloxone]
tramadol-overdosed rats
  tramadol-induced respiratory depression / ventilation: reversed tramadol-induced respiratory depression

## amoxicillin-clavulanic acid
[6]; IC 95% [0.315 + 0.946], p = 0.031
  HR for early VAP vs placebo: 0.546
[6]; IV 1 g 200 mg three times a day for 2 days, n = 99
  incidence of early VAP (< 7 days): 19.2%
[6]; n = 99
  Day 28 mortality: 41.4%
  late VAP (> 7 days), number of patients: 4

## NC[C@H](O)c1ccc(O)c(O)c1 [norepinephrine]
[7]; 95% confidence interval 1.1–2.0, p = 0.02
  OR of maximal dose for mortality: 1.4
[7]; 191 children with septic shock treated with norepinephrine
  global mortality rate: 28.8%
[7]; in vivo
  mortality rate in preterm neonates: 35.3%
[7]; when dose reached 0.75 µg kg per minute
  mortality: 46.2%
[8]; H2 to H24
  arterial pH and lactate: arterial pH increased and lactate level decreased
[8]; in vivo
  ECMO use: 3%
  cardiac double product (surrogate of myocardial oxygen consumption): did not change
  heart rate evolution: did not change
  incidence of arrhythmia: 33%
  mortality: 37%
[8]; titrated to MAP 70 mmHg, epinephrine n = 27, norepinephrine n = 30
  incidence of refractory shock: 7%

## CC(=O)NC[C@H]1CN(c2ccc(N3CCOCC3)c(F)c2)C(=O)O1 [linezolid]
Staphylococcus aureus [9]
  resistance rate: 1%

## Cyclosporine A [CsA]
[10]; D0 and D1, p = ns
  IL-1, IL-6, IL-8 and TNFα levels versus Control group: did not significantly differ
[10]; p < 0.05
  level of IL 10 at admission versus Control group: significantly lower

## CN(C)c1cc(NC(=O)CNC(C)(C)C)c(O)c2c1C[C@H]1C[C@H]3[C@H](N(C)C)C(O)=C(C(N)=O)C(=O)[C@@]3(O)C(O)=C1C2=O [tigecycline]
[11]; colistin excepting with Proteus
  susceptibility: 63%
Staphylococcus aureus [9]
  resistance rate: 15%

## CC(O)C(=O)[O-].[Na+] (centres unmarked) [sodium lactate]
[12]; 6 h period following initiation, p = 0.02
  diuresis: increase
[12]; at H6 (p = 0.009) and H24 (p = 0.003), 250 ml infusion, 104 patients
  mean arterial pressure: significant increase
[12]; at H6 and H24, all p < 0.0001
  pH, bicarbonate, base excess, and sodium: increase
[12]; at H24
  patients with plasma sodium >= 150 mmol l and pH >= 7.50: 5%
[12]; at H24, p = 0.002
  catecholamine dose: decrease
[12]; at H24, p = 0.05
  heart rate: decrease
[13]; after sodium lactate infusion
  hemodynamics parameters: not significantly enhanced
[13]; sodium lactate 11.2% 5 mL/kg/h vs 0.9% NaCl, LPS 10 mg/kg, 210 min
  fluid balance, organs wet dry ratio and Evans blue dye extravasation: not significantly improved

## C[C@]1(Cn2ccnn2)[C@H](C(=O)O)N2C(=O)C[C@H]2S1(=O)=O [Tazobactam]
[14]
  OR for SM-VAP, univariate analysis: 1.75 [1.04; 2.94]

## CN1C(=O)CN=C(c2ccccc2)c2cc(Cl)ccc21 [diazepam]
tramadol-overdosed rats; rat, in vivo
  sedation depth: significantly deepened rat sedation
tramadol-overdosed rats
  tramadol-induced respiratory depression / ventilation: without improving ventilation

## CN1[C@@H]2CC[C@H]1C[C@@H](OC(=O)C(CO)c1ccccc1)C2 (some centres unmarked) [atropine]
[15]
  OR, independent risk factor for delirium: 2.333

## sevelamer
[16]; sevelamer 6 weeks before LPS
  RNA expression of FXR in the kidney versus CKD LPS group: increased the RNA expression of FXR
  plasmatic concentration of Il1b, TNFa versus CKD LPS group: lower plasmatic concentration
[16]; sevelamer 6 weeks before LPS 0.5 mg kg
  survival of CKD LPS animals: improved the survival

## C[C@@H](O)[C@H]1C(=O)N2C(C(=O)O)=C(S[C@@H]3CN[C@H](C(=O)Nc4cccc(C(=O)O)c4)C3)[C@H](C)[C@H]12 [ertapenem]
Escherichia-coli
  resistance: without resistance
[11]; 39 selected bacteria
  strains with MIC > 1 mg l: 95%

## O=C(O)c1cn(C2CC2)c2cc(N3CCNCC3)c(F)cc2c1=O [ciprofloxacin]
[14]
  OR for SM-VAP, univariate analysis: 1.77 [0.92; 3.39]

## C[C@H]1C[C@H]2[C@@H]3CCC4=CC(=O)C=C[C@]4(C)[C@@]3(F)[C@@H](O)C[C@]2(C)[C@@]1(O)C(=O)CO [Betamethasone]
Glucocorticoid receptors; non-septic critically ill
  corticoresistance (mean blanching score < 2): 56%
Glucocorticoid receptors; septic shock, 10 µl cream on 3 cm^2, read at 24 h
  corticoresistance (mean blanching score < 2): 78%
